Laboratory results as given in ChEMBL document CHEMBL3046897, “Synthesis of 3-{4-[4-dimethylamino-6-(4-methyl-2-oxo-2H-chromen-7-yloxy)-[1,3,5]triazin-2-ylamino]-phenyl}-2-phenyl-5-(4-pyridin-2-yl-piperazin-1-ylmethyl)-thiazolidin-4-one and their biological evaluation” (2012).
Converted amounts (≈) assume the structure as drawn.

Assays:
Format in all cases: functional
Salmonella typhi [1] = test: Antibacterial activity against Salmonella enterica subsp. enterica serovar Typhi at 100 ug/disk after 24 hr by paper disk diffusion method; details: read-out: IZ
Shigella flexneri [2] = test: Antibacterial activity against Shigella flexneri after 24 hr by agar streak dilution method
Shigella flexneri [3] = test: Antibacterial activity against Shigella flexneri at 100 ug/disc after 24 hr by paper disk diffusion method; details: read-out: IZ
Staphylococcus aureus [4] = test: Antibacterial activity against Staphylococcus aureus at 100 ug/disc after 24 hr by paper disk diffusion method; details: read-out: IZ
Pseudomonas aeruginosa [5] = test: Antibacterial activity against Pseudomonas aeruginosa after 24 hr by agar streak dilution method
Salmonella typhi [6] = test: Antibacterial activity against Salmonella enterica subsp. enterica serovar Typhi after 24 hr by agar streak dilution method
Aspergillus fumigatus [7] = test: Antifungal activity against Aspergillus fumigatus after 48 hr by agar streak dilution method
Klebsiella pneumoniae [8] = test: Antibacterial activity against Klebsiella pneumoniae at 100 ug/disk after 24 hr by paper disk diffusion method; details: read-out: IZ
Candida albicans [9] = test: Antifungal activity against Candida albicans at 100 ug/disk after 48 hr by paper disk diffusion method; details: read-out: IZ
Escherichia coli [10] = test: Antibacterial activity against Escherichia coli after 24 hr by agar streak dilution method
Pseudomonas aeruginosa [11] = test: Antibacterial activity against Pseudomonas aeruginosa at 100 ug/disk after 24 hr by paper disk diffusion method; details: read-out: IZ
Klebsiella pneumoniae [12] = test: Antibacterial activity against Klebsiella pneumoniae after 24 hr by agar streak dilution method
Bacillus subtilis [13] = test: Antibacterial activity against Bacillus subtilis at 100 ug/disk after 24 hr by paper disk diffusion method; details: read-out: IZ
Candida albicans [14] = test: Antifungal activity against Candida albicans after 48 hr by agar streak dilution method
Proteus vulgaris [15] = test: Antibacterial activity against Proteus vulgaris after 24 hr by agar streak dilution method
Aspergillus fumigatus [16] = test: Antifungal activity against Aspergillus fumigatus at 100 ug/disc after 48 hr by paper disk diffusion method; details: read-out: IZ
Aspergillus niger [17] = test: Antifungal activity against Aspergillus niger at 100 ug/disk after 48 hr by paper disk diffusion method; details: read-out: IZ
Aspergillus niger [18] = test: Antifungal activity against Aspergillus niger after 48 hr by agar streak dilution method
Aspergillus clavatus [19] = test: Antifungal activity against Aspergillus clavatus after 48 hr by agar streak dilution method
Escherichia coli [20] = test: Antibacterial activity against Escherichia coli at 100 ug/disk after 24 hr by paper disk diffusion method; details: read-out: IZ
Proteus vulgaris [21] = test: Antibacterial activity against Proteus vulgaris at 100 ug/disk after 24 hr by paper disk diffusion method; details: read-out: IZ
Aspergillus clavatus [22] = test: Antifungal activity against Aspergillus clavatus at 100 ug/disc after 48 hr by paper disk diffusion method; details: read-out: IZ
Bacillus subtilis [23] = test: Antibacterial activity against Bacillus subtilis after 24 hr by agar streak dilution method
Staphylococcus aureus [24] = test: Antibacterial activity against Staphylococcus aureus after 24 hr by agar streak dilution method

Row | Compound | zone of inhibition at 100 µg/disc (Salmonella typhi [1]) [mm] | MIC (Shigella flexneri [2]) [µg/mL] | zone of inhibition at 100 µg/disc (Shigella flexneri [3]) [mm] | zone of inhibition at 100 µg/disc (Staphylococcus aureus [4]) [mm] | MIC (Pseudomonas aeruginosa [5]) [µg/mL] | MIC (Salmonella typhi [6]) [µg/mL] | MIC (Aspergillus fumigatus [7]) [µg/mL] | zone of inhibition at 100 µg/disc (Klebsiella pneumoniae [8]) [mm] | zone of inhibition at 100 µg/disc (Candida albicans [9]) [mm] | MIC (Escherichia coli [10]) [µg/mL] | zone of inhibition at 100 µg/disc (Pseudomonas aeruginosa [11]) [mm] | MIC (Klebsiella pneumoniae [12]) [µg/mL] | zone of inhibition at 100 µg/disc (Bacillus subtilis [13]) [mm] | MIC (Candida albicans [14]) [µg/mL] | MIC (Proteus vulgaris [15]) [µg/mL] | zone of inhibition at 100 µg/disc (Aspergillus fumigatus [16]) [mm] | zone of inhibition at 100 µg/disc (Aspergillus niger [17]) [mm] | MIC (Aspergillus niger [18]) [µg/mL] | MIC (Aspergillus clavatus [19]) [µg/mL] | zone of inhibition at 100 µg/disc (Escherichia coli [20]) [mm] | also measured
1 | Cc1cc(=O)oc2cc(Oc3nc(Nc4ccc(/N=C/c5ccc(O)cc5O)cc4)nc(N(C)C)n3)ccc12 | 18 | 100 (≈ 191 µM) | 18 | 20 | 50 (≈ 95.3 µM) | 50 (≈ 95.3 µM) | 25 (≈ 47.7 µM) | 19 | 20 | 25 (≈ 47.7 µM) | 17 | 50 (≈ 95.3 µM) | 18 | 25 (≈ 47.7 µM) | 50 (≈ 95.3 µM) | 18 | 14 | 100 (≈ 191 µM) | 100 (≈ 191 µM) | 18 | zone of inhibition at 100 µg/disc (Proteus vulgaris [21]): 17 mm; zone of inhibition at 100 µg/disc (Aspergillus clavatus [22]): 15 mm; MIC (Bacillus subtilis [23]): 25 µg/mL (≈ 47.7 µM); MIC (Staphylococcus aureus [24]): 12.5 µg/mL (≈ 23.8 µM)
2 | Cc1cc(=O)oc2cc(Oc3nc(Nc4ccc(N5C(=O)C(CN6CCN(c7ccccn7)CC6)SC5c5ccc(O)cc5O)cc4)nc(N(C)C)n3)ccc12 (stereo not drawn) | 28 | 6.25 (≈ 8.08 µM) | 26 | 26 | 25 (≈ 32.3 µM) | 6.25 (≈ 8.08 µM) | 12.5 (≈ 16.2 µM) | 27 | 27 | 12.5 (≈ 16.2 µM) | 20 | 6.25 (≈ 8.08 µM) | 23 | 6.25 (≈ 8.08 µM) | 25 (≈ 32.3 µM) | 23 | 21 | 25 (≈ 32.3 µM) | 12.5 (≈ 16.2 µM) | 23 | zone of inhibition at 100 µg/disc (Proteus vulgaris [21]): 22 mm; zone of inhibition at 100 µg/disc (Aspergillus clavatus [22]): 22 mm; MIC (Bacillus subtilis [23]): 12.5 µg/mL (≈ 16.2 µM); MIC (Staphylococcus aureus [24]): 6.25 µg/mL (≈ 8.08 µM)
3 | Cc1cc(=O)oc2cc(Oc3nc(Nc4ccc(N5C(=O)C(CN6CCN(c7ccccn7)CC6)SC5c5ccc(Cl)cc5Cl)cc4)nc(N(C)C)n3)ccc12 (stereo not drawn) | 18 | 25 (≈ 30.8 µM) | 20 | 22 | 50 (≈ 61.7 µM) | 50 (≈ 61.7 µM) | 50 (≈ 61.7 µM) | 21 | 20 | 25 (≈ 30.8 µM) | 18 | 25 (≈ 30.8 µM) | 23 | 50 (≈ 61.7 µM) | 12.5 (≈ 15.4 µM) | 19 | 18 | 50 (≈ 61.7 µM) | 25 (≈ 30.8 µM) | 19 | zone of inhibition at 100 µg/disc (Proteus vulgaris [21]): 21 mm; zone of inhibition at 100 µg/disc (Aspergillus clavatus [22]): 23 mm; MIC (Bacillus subtilis [23]): 12.5 µg/mL (≈ 15.4 µM); MIC (Staphylococcus aureus [24]): 25 µg/mL (≈ 30.8 µM)
4 | Cc1cc(=O)oc2cc(Oc3nc(Nc4ccc(N5C(=O)C(CN6CCN(c7ccccn7)CC6)SC5c5ccc(F)cc5)cc4)nc(N(C)C)n3)ccc12 (stereo not drawn) | 19 | 25 (≈ 32.9 µM) | 21 | 28 | 6.25 (≈ 8.23 µM) | 50 (≈ 65.8 µM) | 12.5 (≈ 16.5 µM) | 18 | 27 | 25 (≈ 32.9 µM) | 26 | 50 (≈ 65.8 µM) | 23 | 6.25 (≈ 8.23 µM) | 12.5 (≈ 16.5 µM) | 21 | 29 | 6.25 (≈ 8.23 µM) | 6.25 (≈ 8.23 µM) | 20 | zone of inhibition at 100 µg/disc (Proteus vulgaris [21]): 22 mm; zone of inhibition at 100 µg/disc (Aspergillus clavatus [22]): 26 mm; MIC (Bacillus subtilis [23]): 12.5 µg/mL (≈ 16.5 µM); MIC (Staphylococcus aureus [24]): 6.25 µg/mL (≈ 8.23 µM)
5 | Cc1cc(=O)oc2cc(Oc3nc(Nc4ccc(N5C(=O)C(CN6CCN(c7ccccn7)CC6)SC5c5ccc(Cl)cc5)cc4)nc(N(C)C)n3)ccc12 (stereo not drawn) | 24 | 6.25 (≈ 8.05 µM) | 27 | 21 | 50 (≈ 64.4 µM) | 12.5 (≈ 16.1 µM) | 12.5 (≈ 16.1 µM) | 22 | 26 | 50 (≈ 64.4 µM) | 18 | 25 (≈ 32.2 µM) | 18 | 6.25 (≈ 8.05 µM) | 12.5 (≈ 16.1 µM) | 21 | 18 | 50 (≈ 64.4 µM) | 12.5 (≈ 16.1 µM) | 23 | zone of inhibition at 100 µg/disc (Proteus vulgaris [21]): 25 mm; zone of inhibition at 100 µg/disc (Aspergillus clavatus [22]): 25 mm; MIC (Bacillus subtilis [23]): 50 µg/mL (≈ 64.4 µM); MIC (Staphylococcus aureus [24]): 25 µg/mL (≈ 32.2 µM)
6 | Cc1cc(=O)oc2cc(Oc3nc(Nc4ccc(N5C(=O)CSC5c5ccc(F)cc5)cc4)nc(N(C)C)n3)ccc12 (stereo not drawn) | 17 | 50 (≈ 85.5 µM) | 18 | 23 | 25 (≈ 42.8 µM) | 50 (≈ 85.5 µM) | 50 (≈ 85.5 µM) | 15 | 24 | 50 (≈ 85.5 µM) | 22 | 100 (≈ 171 µM) | 20 | 12.5 (≈ 21.4 µM) | 25 (≈ 42.8 µM) | 18 | 25 | 12.5 (≈ 21.4 µM) | 25 (≈ 42.8 µM) | 17 | zone of inhibition at 100 µg/disc (Proteus vulgaris [21]): 20 mm; zone of inhibition at 100 µg/disc (Aspergillus clavatus [22]): 22 mm; MIC (Bacillus subtilis [23]): 25 µg/mL (≈ 42.8 µM); MIC (Staphylococcus aureus [24]): 25 µg/mL (≈ 42.8 µM)
7 | Cc1cc(=O)oc2cc(Oc3nc(Nc4ccc(/N=C/c5ccc(O)cc5)cc4)nc(N(C)C)n3)ccc12 | 19 | 100 (≈ 197 µM) | 17 | 20 | 50 (≈ 98.3 µM) | 50 (≈ 98.3 µM) | 50 (≈ 98.3 µM) | 11 | 16 | 25 (≈ 49.2 µM) | 18 | 100 (≈ 197 µM) | 18 | 100 (≈ 197 µM) | 50 (≈ 98.3 µM) | 18 | 20 | 50 (≈ 98.3 µM) | 100 (≈ 197 µM) | 20 | zone of inhibition at 100 µg/disc (Proteus vulgaris [21]): 19 mm; zone of inhibition at 100 µg/disc (Aspergillus clavatus [22]): 14 mm; MIC (Bacillus subtilis [23]): 50 µg/mL (≈ 98.3 µM); MIC (Staphylococcus aureus [24]): 25 µg/mL (≈ 49.2 µM)
